# From PubChem BioAssay AID330 (DTP/NCI, 2004)
# Values joined by “and” are separate entries in the source; they are usually repeats but may differ in a detail not shown here. Equal values may be shown once. Toxic doses and inconclusive results are not listed.
# Test system: P388 leukemia ip, CD2F1 mice, survival T/C
# Assay: NCI In Vivo Anticancer Drug Screen. Data for tumor model P388 Leukemia (intraperitoneal) in CD2F1 (CDF1) mice
# Conditions: endpoint: median survival time, higher = longer survival
# Outline: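 Mice carrying the transplanted tumor received test compound or vehicle. Survival was recorded in each group, and the value is the treated-group measurement divided by that of the vehicle-treated control group.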
# [1] = dose: 100.0 mg/kg/injection, schedule: Q01DX009 (ip), vehicle: Klucel (hydroxypropylcellulose) (HPC)
# [2] = dose: 200.0 mg/kg/injection, schedule: Q01DX009 (ip), vehicle: Klucel (hydroxypropylcellulose) (HPC)
# [3] = dose: 12.5 mg/kg/injection, schedule: Q01DX009 (ip), vehicle: saline with Tween-80
# [4] = dose: 25.0 mg/kg/injection, schedule: Q01DX009 (ip), vehicle: saline with Tween-80
# [5] = dose: 50.0 mg/kg/injection, schedule: Q01DX009 (ip), vehicle: saline with Tween-80
# [6] = dose: 50.0 mg/kg/injection, schedule: Q01DX005 (ip), vehicle: saline with Tween-80
# [7] = dose: 100.0 mg/kg/injection, schedule: Q01DX005 (ip), vehicle: saline with Tween-80
# [8] = dose: 200.0 mg/kg/injection, schedule: Q01DX005 (ip), vehicle: saline with Tween-80
# [9] = dose: 100.0 mg/kg/injection, schedule: Q04DX003 (ip), vehicle: saline
# [10] = dose: 50.0 mg/kg/injection, schedule: Q01DX009 (ip), vehicle: Klucel (hydroxypropylcellulose) (HPC)
compound,measurement,setting,value
COc1ccc(Cc2cc3c(cc2O)OCO3)cc1,T/C,"dose: 2.5 mg/kg/injection, schedule: Q01DX009 (ip), vehicle: saline with Tween-80",99 % of control
same,T/C,"dose: 5.0 mg/kg/injection, schedule: Q01DX009 (ip), vehicle: saline with Tween-80",101 % of control
same,T/C,"dose: 10.0 mg/kg/injection, schedule: Q01DX009 (ip), vehicle: saline with Tween-80",101 % of control
same,T/C,"dose: 15.0 mg/kg/injection, schedule: Q01DX005 (ip), vehicle: saline with Tween-80",107 % of control
same,T/C,"dose: 31.0 mg/kg/injection, schedule: Q01DX005 (ip), vehicle: saline with Tween-80",102 % of control
same,T/C,"dose: 62.5 mg/kg/injection, schedule: Q01DX005 (ip), vehicle: saline with Tween-80",106 % of control
same,T/C,"dose: 125.0 mg/kg/injection, schedule: Q01DX005 (ip), vehicle: saline with Tween-80",100 % of control
same,T/C,"dose: 250.0 mg/kg/injection, schedule: Q01DX005 (ip), vehicle: saline with Tween-80",102 % of control
CN(C)c1ccc(-c2nnc3c(c(=O)n(C)c(=O)n3C)[n+]2[O-])cc1,T/C,"dose: 25.0 mg/kg/injection, schedule: Q01DX001 (ip), vehicle: Klucel (hydroxypropylcellulose) (HPC)",102 % of control
same,T/C,"dose: 50.0 mg/kg/injection, schedule: Q01DX001 (ip), vehicle: Klucel (hydroxypropylcellulose) (HPC)",93 % of control
same,T/C,"dose: 100.0 mg/kg/injection, schedule: Q01DX001 (ip), vehicle: Klucel (hydroxypropylcellulose) (HPC)",100 % of control and 94 % of control
O=C(Oc1ccc(Cl)cc1Cl)c1ccc([N+](=O)[O-])cc1,T/C,[1],96 % of control
same,T/C,[2],87 % of control
same,T/C,"dose: 400.0 mg/kg/injection, schedule: Q01DX009 (ip), vehicle: Klucel (hydroxypropylcellulose) (HPC)",96 % of control
OC1C(O)C(O)C(O)C(O)C1O.[Cu+2].[Cu] (centres undefined),T/C,"dose: 3.12 mg/kg/injection, schedule: Q01DX005 (ip), vehicle: Klucel (hydroxypropylcellulose) (HPC)",93 % of control
same,T/C,"dose: 6.25 mg/kg/injection, schedule: Q01DX005 (ip), vehicle: Klucel (hydroxypropylcellulose) (HPC)",93 % of control
same,T/C,"dose: 12.5 mg/kg/injection, schedule: Q01DX005 (ip), vehicle: Klucel (hydroxypropylcellulose) (HPC)",94 % of control
same,T/C,"dose: 25.0 mg/kg/injection, schedule: Q01DX005 (ip), vehicle: Klucel (hydroxypropylcellulose) (HPC)",100 % of control
CC[C@H]1CN2CCc3cc(OC)c(OC)cc3[C@@H]2C[C@@H]1C[C@@H]1c2cc(OC)c(OC)cc2CCN1N=O,T/C,"dose: 6.25 mg/kg/injection, schedule: Q01DX009 (ip), vehicle: saline with Tween-80",96 % of control
same,T/C,[3],99 % of control
same,T/C,[4],107 % of control
same,T/C,[5],100 % of control
CCOC(=O)Nc1ccc(C2SCCN2C(=O)NC)cc1 (centres undefined),T/C,"dose: 60.0 mg/kg/injection, schedule: Q01DX005 (ip), vehicle: saline with Tween-80",109 % of control
same,T/C,"dose: 120.0 mg/kg/injection, schedule: Q01DX005 (ip), vehicle: saline with Tween-80",103 % of control
same,T/C,"dose: 240.0 mg/kg/injection, schedule: Q01DX005 (ip), vehicle: saline with Tween-80",100 % of control
COc1ccc(C(c2cc(C(C)(C)C)c(O)c(C(C)(C)C)c2)N2CCCCC2)cc1 (centres undefined),T/C,[6],102 % of control
same,T/C,[7],109 % of control
same,T/C,[8],112 % of control
CCC1=C[C@H]2CN(CCc3c([nH]c4ccccc34)[C@@](C(=O)OC)(c3cc4c(cc3OC)N(C)[C@H]3[C@@](O)(C(=O)NCCSC)[C@H](O)[C@]5(CC)C=CCN6CC[C@]43[C@@H]65)C2)C1,T/C,"dose: 0.5 mg/kg/injection, schedule: Q01DX001 (ip), vehicle: water",117 % of control
same,T/C,"dose: 2.0 mg/kg/injection, schedule: Q01DX001 (ip), vehicle: water",118 % of control
same,T/C,"dose: 16.0 mg/kg/injection, schedule: Q01DX001 (ip), vehicle: water",154 % of control and 168 % of control
same,T/C,"dose: 32.0 mg/kg/injection, schedule: Q01DX001 (ip), vehicle: water",191 % of control
CC(=O)O/N=C/c1cc[n+](C)cc1,T/C,"dose: 25.0 mg/kg/injection, schedule: Q04DX003 (ip), vehicle: saline",105 % of control
same,T/C,"dose: 50.0 mg/kg/injection, schedule: Q04DX003 (ip), vehicle: saline",101 % of control
same,T/C,[9],90 % of control
C=CCn1c(=O)n(CC)c(=O)c2[nH]c(C(F)(F)F)nc21,T/C,"dose: 25.0 mg/kg/injection, schedule: Q01DX009 (ip), vehicle: Klucel (hydroxypropylcellulose) (HPC)",99 % of control
same,T/C,[10],102 % of control
same,T/C,[1],112 % of control
O=C1c2ccccc2CCCC12OC2c1ccncc1 (centres undefined),T/C,[10],90 % of control
same,T/C,[1],96 % of control
same,T/C,[2],90 % of control
CCN(CC)c1ccc2cc3ccc(=[N+](CC)CC)cc-3oc2c1,T/C,"dose: 1.0 mg/kg/injection, schedule: Q01DX009 (ip), vehicle: saline",109 % of control
NC1CCC(O)CC1C(=O)O (centres undefined),T/C,[6],99 % of control
same,T/C,[7],103 % of control
same,T/C,[8],86 % of control
CC1(C)OC2(C)CCC1C1C2N1C(=O)NCCCl (centres undefined),T/C,"dose: 50.0 mg/kg/injection, schedule: Q01DX005 (ip), vehicle: saline",108 % of control
same,T/C,"dose: 100.0 mg/kg/injection, schedule: Q01DX005 (ip), vehicle: saline",100 % of control
same,T/C,"dose: 200.0 mg/kg/injection, schedule: Q01DX005 (ip), vehicle: saline",89 % of control
COc1cc2c(cc1C(C)=O)C=CC(C)(C)O2,T/C,"dose: 22.5 mg/kg/injection, schedule: Q01DX005 (ip), vehicle: Klucel (hydroxypropylcellulose) (HPC)",100 % of control
same,T/C,"dose: 45.0 mg/kg/injection, schedule: Q01DX005 (ip), vehicle: Klucel (hydroxypropylcellulose) (HPC)",100 % of control
same,T/C,"dose: 90.0 mg/kg/injection, schedule: Q01DX005 (ip), vehicle: Klucel (hydroxypropylcellulose) (HPC)",94 % of control
same,T/C,"dose: 180.0 mg/kg/injection, schedule: Q01DX005 (ip), vehicle: Klucel (hydroxypropylcellulose) (HPC)",98 % of control
CSC(=S)c1ccc(NS(=O)(=O)c2ccccc2)cc1,T/C,[9],100 % of control
same,T/C,"dose: 200.0 mg/kg/injection, schedule: Q04DX003 (ip), vehicle: saline",106 % of control
same,T/C,"dose: 400.0 mg/kg/injection, schedule: Q04DX003 (ip), vehicle: saline",105 % of control
OC(Cc1cccnc1)(c1ccccc1)c1ccccc1,T/C,[10],111 % of control
same,T/C,[1],109 % of control
same,T/C,[2],118 % of control
O=C(O)C(F)(F)F.O=C(O)C(F)(F)F.O=C(O)C(F)(F)F.O=C(O)C(F)(F)F.[Rh].[Rh],T/C,"dose: 25.0 mg/kg/injection, schedule: Q01DX009 (ip), vehicle: saline",86 % of control
same,T/C,"dose: 50.0 mg/kg/injection, schedule: Q01DX009 (ip), vehicle: saline",110 % of control
same,T/C,"dose: 50.0 mg/kg/injection, schedule: Q01DX009 (ip), vehicle: suspension in saline",104 % of control
same,T/C,"dose: 100.0 mg/kg/injection, schedule: Q01DX009 (ip), vehicle: saline",122 % of control
same,T/C,"dose: 100.0 mg/kg/injection, schedule: Q01DX009 (ip), vehicle: suspension in saline",123 % of control
COc1ccc(C2(Cc3ccccc3C#N)OCCO2)cc1OC,T/C,"dose: 100.0 mg/kg/injection, schedule: Q04DX002 (ip), vehicle: Klucel (hydroxypropylcellulose) (HPC)",95 % of control
same,T/C,"dose: 200.0 mg/kg/injection, schedule: Q04DX002 (ip), vehicle: Klucel (hydroxypropylcellulose) (HPC)",101 % of control
same,T/C,"dose: 400.0 mg/kg/injection, schedule: Q04DX002 (ip), vehicle: Klucel (hydroxypropylcellulose) (HPC)",99 % of control
Clc1ccccc1/C=C/C=C1c2ccccc2-c2ccccc21,T/C,[3],90 % of control
same,T/C,[4],104 % of control
same,T/C,[5],113 % of control
same,T/C,"dose: 100.0 mg/kg/injection, schedule: Q04DX003 (ip), vehicle: saline with Tween-80",95 % of control
same,T/C,"dose: 200.0 mg/kg/injection, schedule: Q04DX003 (ip), vehicle: saline with Tween-80",109 % of control
same,T/C,"dose: 400.0 mg/kg/injection, schedule: Q04DX003 (ip), vehicle: saline with Tween-80",109 % of control
CN(C)S(=O)(=O)N1CCOCC1,T/C,"dose: 50.0 mg/kg/injection, schedule: Q04DX003 (ip), vehicle: Klucel (hydroxypropylcellulose) (HPC)",95 % of control
same,T/C,"dose: 100.0 mg/kg/injection, schedule: Q04DX003 (ip), vehicle: Klucel (hydroxypropylcellulose) (HPC)",101 % of control
same,T/C,"dose: 200.0 mg/kg/injection, schedule: Q04DX003 (ip), vehicle: Klucel (hydroxypropylcellulose) (HPC)",93 % of control
same,T/C,"dose: 400.0 mg/kg/injection, schedule: Q04DX003 (ip), vehicle: Klucel (hydroxypropylcellulose) (HPC)",110 % of control
COc1ccc(Br)cc1C1SCC(=O)N1c1nncs1 (centres undefined),T/C,"dose: 60.0 mg/kg/injection, schedule: Q01DX005 (ip), vehicle: Klucel (hydroxypropylcellulose) (HPC)",101 % of control
same,T/C,"dose: 120.0 mg/kg/injection, schedule: Q01DX005 (ip), vehicle: Klucel (hydroxypropylcellulose) (HPC)",101 % of control
same,T/C,"dose: 240.0 mg/kg/injection, schedule: Q01DX005 (ip), vehicle: Klucel (hydroxypropylcellulose) (HPC)",93 % of control
